Measurements from ChEMBL document CHEMBL3243984, “Methotrexate analogues. 11. Unambiguous chemical synthesis and in vitro biological evaluation of alpha- and gamma-monoesters as potential prodrugs” (J Med Chem, 1978).

Experiments:
CCRF-CEM = experiment: Growth inhibition of human CCRF-CEM cells; format: functional
[1] = target: T1, Dihydrofolate reductase (Oryctolagus cuniculus) (UniProt C1JLF0); experiment: Inhibition of rabbit liver dihydrofolate reductase using [3H]-folic acid after 10 mins by scintillation counting
T1 sequence (whole entry): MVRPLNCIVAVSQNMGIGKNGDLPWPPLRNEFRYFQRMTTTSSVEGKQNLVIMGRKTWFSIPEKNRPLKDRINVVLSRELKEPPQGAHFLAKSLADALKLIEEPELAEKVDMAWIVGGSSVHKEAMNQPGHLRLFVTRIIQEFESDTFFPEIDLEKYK

Serum [2] = experiment: Retention time in human serum at 150 mg after 72 hrs by HPLC analysis; format: ADME, cell-free
Serum [3] = experiment: Drug metabolism in mouse serum assessed as parent compound level at 0.006 g after 2 hrs by TLC analysis; format: ADME, cell-free
Serum [4] = experiment: Drug metabolism in mouse serum assessed as parent compound level at 0.006 g after 6 hrs by TLC analysis; format: ADME, cell-free
[5] = Drug metabolism in mouse serum assessed as parent compound level at 0.006 g after 24 hrs by TLC analysis; format: ADME, cell-free; details: read-out: Drug metabolism
[6] = Drug metabolism in mouse serum assessed as parent compound level at 0.006 g after 48 hrs by TLC analysis; format: ADME, cell-free; details: read-out: Drug metabolism
[7] = Drug metabolism in monkey serum assessed as parent compound level at 0.006 g after 2 hrs by TLC analysis; format: ADME, cell-free, Macaca mulatta; details: rhesus monkey, read-out: Drug metabolism
[8] = Drug metabolism in monkey serum assessed as parent compound level at 0.006 g after 6 hrs by TLC analysis; format: ADME, cell-free, Macaca mulatta; details: rhesus monkey, read-out: Drug metabolism
[9] = Drug metabolism in monkey serum assessed as parent compound level at 0.006 g after 24 hrs by TLC analysis; format: ADME, cell-free, Macaca mulatta; details: rhesus monkey, read-out: Drug metabolism
[10] = Drug metabolism in monkey serum assessed as parent compound level at 0.006 g after 48 hrs by TLC analysis; format: ADME, cell-free, Macaca mulatta; details: rhesus monkey, read-out: Drug metabolism
[11] = Drug metabolism in human serum assessed as parent compound level at 0.006 g after 2 hrs by TLC analysis; format: ADME, cell-free; details: read-out: Drug metabolism
[12] = Drug metabolism in human serum assessed as parent compound level at 0.006 g after 6 hrs by TLC analysis; format: ADME, cell-free; details: read-out: Drug metabolism
[13] = Drug metabolism in human serum assessed as parent compound level at 0.006 g after 24 hrs by TLC analysis; format: ADME, cell-free; details: read-out: Drug metabolism
[14] = Drug metabolism in human serum assessed as parent compound level at 0.006 g after 48 hrs by TLC analysis; format: ADME, cell-free; details: read-out: Drug metabolism
Serum [15] = experiment: Drug metabolism in rat serum assessed as DBMTX level at 0.006 g after 2 hrs by TLC analysis; format: ADME, cell-free
Serum [16] = experiment: Drug metabolism in rat serum assessed as DBMTX level at 0.006 g after 6 hrs by TLC analysis; format: ADME, cell-free
Serum [17] = experiment: Drug metabolism in rat serum assessed as DBMTX level at 0.006 g after 24 hrs by TLC analysis; format: ADME, cell-free
Serum [18] = experiment: Drug metabolism in rat serum assessed as DBMTX level at 0.006 g after 48 hrs by TLC analysis; format: ADME, cell-free
Serum [19] = experiment: Drug metabolism in rat serum assessed as MBMTX level at 0.006 g after 2 hrs by TLC analysis; format: ADME, cell-free
Serum [20] = experiment: Drug metabolism in rat serum assessed as MBMTX level at 0.006 g after 6 hrs by TLC analysis; format: ADME, cell-free
Serum [21] = experiment: Drug metabolism in rat serum assessed as MBMTX level at 0.006 g after 24 hrs by TLC analysis; format: ADME, cell-free
Serum [22] = experiment: Drug metabolism in rat serum assessed as MBMTX level at 0.006 g after 48 hrs by TLC analysis; format: ADME, cell-free
Serum [23] = experiment: Drug metabolism in rat serum assessed as parent compound level at 0.006 g after 2 hrs by TLC analysis; format: ADME, cell-free
Serum [24] = experiment: Drug metabolism in rat serum assessed as parent compound level at 0.006 g after 6 hrs by TLC analysis; format: ADME, cell-free
Serum [25] = experiment: Drug metabolism in rat serum assessed as parent compound level at 0.006 g after 24 hrs by TLC analysis; format: ADME, cell-free
Serum [26] = experiment: Drug metabolism in rat serum assessed as parent compound level at 0.006 g after 48 hrs by TLC analysis; format: ADME, cell-free
Serum [27] = experiment: Drug metabolism in human serum assessed as MTX alpha-monobutyl ester level at 150 mg after 72 hrs by HPLC analysis; format: ADME, cell-free
Serum [28] = experiment: Drug metabolism in human serum assessed as MTX gamma-monobutyl ester level at 150 mg after 72 hrs by HPLC analysis; format: ADME, cell-free

With `CN(Cc1cnc2nc(N)nc(N)c2n1)c1ccc(C(=O)N[C@@H](CCC(=O)O)C(=O)O)cc1` [METHOTREXATE] the ID50 (CCRF-CEM) was 0.006 ×10⁻⁶ mol/L, the ID50 [1] was 9 ×10⁻⁹ mol/L and the Retention_time (Serum [2]) was 2 min.
With `COC(=O)CC[C@H](NC(=O)c1ccc(N(C)Cc2cnc3nc(N)nc(N)c3n2)cc1)C(=O)O` the ID50 (CCRF-CEM) was 0.43 ×10⁻⁶ mol/L.
Work on `CCOC(=O)CC[C@H](NC(=O)c1ccc(N(C)Cc2cnc3nc(N)nc(N)c3n2)cc1)C(=O)O` yielded an ID50 (CCRF-CEM) of 0.58 ×10⁻⁶ mol/L.
Compound `COC(=O)CC[C@H](NC(=O)c1ccc(N(C)Cc2cnc3nc(N)nc(N)c3n2)cc1)C(=O)OC` has an ID50 (CCRF-CEM) of 0.4 ×10⁻⁶ mol/L.
For `CCOC(=O)CC[C@H](NC(=O)c1ccc(N(C)Cc2cnc3nc(N)nc(N)c3n2)cc1)C(=O)OCC`, the ID50 (CCRF-CEM) was 0.012 ×10⁻⁶ mol/L.
`CCCCOC(=O)CC[C@H](NC(=O)c1ccc(N(C)Cc2cnc3nc(N)nc(N)c3n2)cc1)C(=O)OCCCC` gave an ID50 (CCRF-CEM) of 0.057 ×10⁻⁶ mol/L, an ID50 [1] of 1.4 ×10⁻⁷ mol/L and a Drug metabolism (Serum [3]) of 43%. It also gave a Drug metabolism (Serum [4]) of 46%, a remaining at 24 h [5] of 89% and a remaining at 48 h [6] of 93%. It also gave a remaining at 2 h [7] of under 1%, a remaining at 6 h [8] of under 1% and a remaining at 24 h [9] of under 1%. It also gave a remaining at 48 h [10] of 2%, a remaining at 2 h [11] of under 1% and a remaining at 6 h [12] of under 1%. The remaining at 24 h [13] was 1%, the remaining at 48 h [14] was under 1% and the Drug metabolism (Serum [15]) was “metabolite_detected”. For the same compound, the Drug metabolism (Serum [16]) was “metabolite_detected”, the Drug metabolism (Serum [17]) was “metabolite_detected” and the Drug metabolism (Serum [18]) was “metabolite_detected”. The Drug metabolism (Serum [19]) was “metabolite_detected”, the Drug metabolism (Serum [20]) was “metabolite_detected” and the Drug metabolism (Serum [21]) was “metabolite_detected”. The Drug metabolism (Serum [22]) was “metabolite_detected”, the Drug metabolism (Serum [23]) was “metabolite_detected” and the Drug metabolism (Serum [24]) was “metabolite_detected”. The Drug metabolism (Serum [25]) was “metabolite_detected”, the Drug metabolism (Serum [26]) was “metabolite_detected” and the Drug metabolism (Serum [27]) was “metabolite_detected”. The Drug metabolism (Serum [28]) was “metabolite_detected”.
`CCCCOC(=O)[C@H](CCC(=O)O)NC(=O)c1ccc(N(C)Cc2cnc3nc(N)nc(N)c3n2)cc1` showed an ID50 (CCRF-CEM) of 2 ×10⁻⁶ mol/L, an ID50 [1] of 1.7 ×10⁻⁸ mol/L and a Retention_time (Serum [2]) of 5.1 min.
`CCCCOC(=O)CC[C@H](NC(=O)c1ccc(N(C)Cc2cnc3nc(N)nc(N)c3n2)cc1)C(=O)O` showed an ID50 (CCRF-CEM) of 0.76 ×10⁻⁶ mol/L, an ID50 [1] of 1.7 ×10⁻⁸ mol/L and a Retention_time (Serum [2]) of 3.2 min.
`CCOC(=O)[C@H](CCC(=O)O)NC(=O)c1ccc(N(C)Cc2cnc3nc(N)nc(N)c3n2)cc1` showed an ID50 (CCRF-CEM) of 6.2 ×10⁻⁶ mol/L.
